These results are taken from US12391695B2, “PRMT5 inhibitors” (Lupin Limited, priority 2019, dated 2025).

The target in assay [1] is PRMT5:MEP50 (Homo sapiens, UniProt O14744). In words: PRMT5 biochemical assay (HTRF, biotinylated H4R3 substrate), protocols 1 and 2. To be noted: 1 μM SAM, 50 nM biotinylated H4R3, protocol 1 or 2 not given, read-out: IC50 (activity range), inhibition of PRMT5. On the procedure: (§1) Inhibitory effect of compounds on PRMT5 was assessed using HTRF detection technology in biochemical assay. Biotinylated H4R3 (residues 1-21) was used as a substrate. Compounds were pre-incubated with 15-25 ng PRMT5:MEP50 per well of a 384-well plate for 30 min at room temperature in the assay buffer containing 20 mM Bicine, pH 7.6, 25 mM NaCl, 2 mM DTT, 0.01% Chicken albumin and 0.01% Tween-20. Reaction was initiated by adding 1 μM of SAM and 50 nM biotinylated H4R3. Total assay volume was 15 μL. Reaction was continued for 120 min at room temperature. Then detection solution containing Streptavidin-Eu cryptate, anti-rabbit IgG-XL-665, Histone H4R3 Dimethyl Symmetric (H4R3me2s) Polyclonal Antibody, all prepared in HTRF detection buffer was added and further incubated for 30 min at room temperature. HTRF signal was recorded in PHERAStar microplate reader. Ratio of signal obtained at 665 nm and 620 nm was used to compute the percent inhibition of compound as follows % Inhibition=100−((Test Ratio−Negative control Ratio)/(Positive control Ratio−Negative control Ratio)*100) where Positive control=PRMT5+SAM+H4R3 Negative control=PRMT5+H4R3 Biochemical Assay Protocol 2
Chain of PRMT5:MEP50 (O14744 whole entry, the tested form may be a part): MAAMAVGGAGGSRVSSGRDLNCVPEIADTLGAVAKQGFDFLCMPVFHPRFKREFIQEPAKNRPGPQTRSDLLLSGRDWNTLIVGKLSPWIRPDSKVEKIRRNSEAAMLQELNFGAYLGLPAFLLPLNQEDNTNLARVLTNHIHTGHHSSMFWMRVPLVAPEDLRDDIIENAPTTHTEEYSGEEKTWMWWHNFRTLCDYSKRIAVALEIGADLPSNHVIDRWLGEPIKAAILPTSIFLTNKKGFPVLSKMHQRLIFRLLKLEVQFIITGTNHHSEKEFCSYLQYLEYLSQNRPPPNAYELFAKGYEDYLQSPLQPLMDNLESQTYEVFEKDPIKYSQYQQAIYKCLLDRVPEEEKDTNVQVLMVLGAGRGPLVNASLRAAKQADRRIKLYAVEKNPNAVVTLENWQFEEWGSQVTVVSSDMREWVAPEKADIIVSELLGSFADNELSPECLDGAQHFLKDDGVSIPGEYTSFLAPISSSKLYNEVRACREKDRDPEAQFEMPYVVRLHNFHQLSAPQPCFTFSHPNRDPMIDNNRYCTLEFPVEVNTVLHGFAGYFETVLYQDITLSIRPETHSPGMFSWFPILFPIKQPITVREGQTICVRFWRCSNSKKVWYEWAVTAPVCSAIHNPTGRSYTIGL
Chain of PRMT5:MEP50 (Q9BQA1 whole entry partner, the tested form may be a part): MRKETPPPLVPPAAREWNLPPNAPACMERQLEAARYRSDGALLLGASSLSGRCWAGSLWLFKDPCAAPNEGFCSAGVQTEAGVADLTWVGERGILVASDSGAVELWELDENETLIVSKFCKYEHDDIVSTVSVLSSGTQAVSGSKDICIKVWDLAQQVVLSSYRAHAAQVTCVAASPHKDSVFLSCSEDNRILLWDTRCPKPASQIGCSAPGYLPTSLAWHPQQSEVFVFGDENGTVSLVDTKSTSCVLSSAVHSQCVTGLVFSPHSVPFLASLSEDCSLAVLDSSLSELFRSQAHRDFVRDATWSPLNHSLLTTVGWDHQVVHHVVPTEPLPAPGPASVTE
as §1, with “2.5” for “15-25”, “4 h” for “120 min”, “control=PRMT5+H4R3” for “control=PRMT5+H4R3 Biochemical Assay Protocol 2”

Assay [2] has as its system SDMA. Briefly: SDMA inhibition assay in Z-138 cells (ELISA with anti-SDMA antibody). It is filed as cell-based. To be noted: Homo sapiens, Z-138, 48 h, 48 h treatment, read-out: IC50 (activity range), SDMA inhibition. How it is done: Z-138 cells (ATCC, CRL-3001™) were seeded at a density of 1 million cells/well in transparent, flat bottomed tissue culture grade 48-well plates. Cells were treated with various concentration of test compounds for a period of 48 h. Cell lysate was prepared using 1× CST Lysis buffer (Cell Signaling Technology, USA) and 500 ng/well/50 μL of lysate in pH 9.6 carbonate buffer was coated on 96-well Maxisorb plate and incubated overnight at 4° C. The plate was washed twice in 1×PBS containing 0.05% Tween 20 and blocked in 1% BSA for 1 h at ambient temperature. Further, the plate was incubated first with primary antibody (anti-SDMA antibody; CST #13222s) at ambient temperature for 2 h and then with HRP-conjugated secondary antibody at ambient temperature for 1 h with 2 intermittent washing steps in between.
For luminiscence based detection, HRP substrates (substrate A+substrate B in a 1:1 proportion) were added followed by luminiscence reading after 30 min in Synergy™ 2 reader (Biotek, USA).
For absorbance based detection, TMB substrate was added followed by addition of STOP solution (2N H2SO4) post colour development and absorbance (excitation 450 nm and emission 540 nm) was measured in Synergy™ 2 reader (Biotek, USA).
% inhibition of SDMA was calculated relative to the vehicle control samples containing media with 0.1% DMSO alone as per the formula below. (Avg. of Untreated Control−Avg. of Test)×100 Avg. Of Untreated Control
The IC50 values of individual compounds were calculated with Non Linear Regression Analysis using Graph Pad Prism (Graph Pad software, Inc, USA).
(In general: ELISA stands for enzyme-linked immunosorbent assay.)

The test system of assay [3] is Z-138 cells. In words: Anti-cancer assay (Z-138), cell viability by CellTiterGlo. It is filed as cell-based. To be noted: Homo sapiens, 96 h treatment, read-out: IC50 (activity range), inhibition of cell viability. How it is done:
Z-138 cells were seeded at a density of 2000-3000 cells per well in culture media (IMDM+10% FBS). PANC-1 (ATCC, CRL-1469™) and MIA PaCa-2 (ATCC, CRL-1420™) cells were seeded at a density of 200-300 cells per well in culture media (DMEM+10% FBS). Cells were seeded in opaque, flat bottomed tissue culture grade 96-well plates and Z-138 cells (suspension) were seeded and treated on the same day with various concentrations of test compounds. PANC-1 and MIA PaCa-2 cells, being adherent, were kept for overnight settlement at standard cell culture conditions (37° C., 5% CO2). On the following day, cells were treated with various concentrations of test compounds. Cells were treated with test compounds for a period of 96 h, 7 days and 10 days, for Z-138 cells, PANC-1 cells and MIA PaCa-2 cells, respectively. Cell viability was assessed using CellTiterGlo™ (Promega, USA) as per manufacturer's instructions. Relative Light Units (RLU) were read in Synergy™ 2 reader (Biotek, USA). The assay measures cellular ATP as an indicator of cell viability. RLU is proportional to the number of viable cells in the respective well. % inhibition of cell viability was calculated relative to the vehicle control samples containing media with 0.1% DMSO alone as per the formula below. (Avg. of Untreated Control−Avg. of Test)×100 Avg. Of Untreated Control
The IC50 values of individual compounds were calculated with Non Linear Regression Analysis using Graph Pad Prism (Graph Pad software, Inc, USA). • Anti-Cancer Assay (Z-138)
Background: ATP-based viability assays read luminescence as a measure of living cells.

The structures appear in SMILES notation.

As a reminder, the IC50 is the midpoint of a concentration-inhibition curve. In the case of `Nc1nc2cc(CC[C@@]34C[C@@H]3[C@@H](n3ccc5c(N)ncnc53)[C@H](O)[C@@H]4O)cnc2cc1Cl` [Compound 24, (1R,2R,3S,4R,5S)-1-(2-(6-Amino-7-chloro-1,5-naphthyridin-3-yl)ethyl)-4-(4-amino-7H-pyrrolo[2,3-d]pyrimidin-7-yl)bicyclo[3.1.0]hexane-2,3-diol], the figures for the IC50 in assay [1], in assay [2] and in assay [3] were 0.25 to 0.95 nM, 1.1 to 50 nM and more than 1 nM, respectively.

As to `Cc1cn([C@@H]2C=C(CCc3cc(C(F)F)c(F)c4c3CNCC4)[C@@H](O)[C@H]2O)c2ncnc(N)c12` [Compound 25, (1S,2R,5R)-5-(4-amino-5-methyl-7H-pyrrolo[2,3-d]pyrimidin-7-yl)-3-(2-(6-(difluoromethyl)-5-fluoro-1,2,3,4-tetrahydroisoquinolin-8-yl)ethyl)cyclopent-3-ene-1,2-diol], the half-inhibitory concentration (IC50) was 0.25 to 0.95 nM in assay [1], 1.1 to 50 nM in assay [2] and more than 1 nM in assay [3].

On to `Nc1nc2cc(CCC3=C[C@@H](n4ccc5c4ncn4ccnc54)[C@H](O)[C@@H]3O)ccc2cc1Br` [Compound 26, (1S,2R,5R)-3-(2-(2-Amino-3-bromoquinolin-7-yl)ethyl)-5-(7H-imidazo[1,2-c]pyrrolo[3,2-e]pyrimidin-7-yl)cyclopent-3-ene-1,2-diol], for which the values for the IC50 in assay [1], in assay [2] and in assay [3] were more than 0.95 nM, 1.1 to 50 nM and more than 1 nM, respectively.
